assay: Effective amount of Amylase AD “Amano” 1 accelerating the conversion into aglycon isoflavones by diglycosidase; format: biochemical; conditions: Amylase AD “Amano” 1 at 0.005% (w/v) with diglycosidase 0.1% (w/v); roasted soy flour 30% (w/v), pH 5.0, 50° C., 3 hours
Description: Roasted soy flour (manufactured by Fuji Shokuhin K.K.) was suspended into 0.1 M sodium acetate adjusted to pH 3.15, the substrate concentration was adjusted to 30% (w/v), and the pH of the solution to 5.0. The suspension was pre-incubated at 50° C. for 1 hour, whereby the temperature of the suspension was elevated to 50° C. To the suspension were added diglycosidase so as to be a final concentration of 0.1% (w/v) (0.3 AU) and Amylase AD “Amano” 1 (manufactured by Amano Enzyme Innc.) so as to be 0.1, 0.05, 0.01, 0.005, and 0.0001% (w/v). The whole was reacted at 50° C. for 3 hours and the change of isoflavone composition was analyzed by HPLC.

`O=c1c(-c2ccc(O)cc2)coc2cc(O)ccc12` [daidzein] and `O=c1c(-c2ccc(O)cc2)coc2cc(O)cc(O)c12` [genistein] are the same in “increase of isolated aglycon versus diglycosidase alone” value: 1.2 fold for the first, 1.20 fold for the second.

For `COc1cc2c(=O)c(-c3ccc(O)cc3)coc2cc1O` [glycitein], the “increase of isolated aglycon versus diglycosidase alone” value was 1.23 fold.

— patent publication US7118895B2, “Process for producing aglycon by using diglycosidase and flavor-improved food containing the aglycon and converting agent to be used in the process” (Amano Enzyme Inc., priority 2000, dated 2006)
